Measurements from patent publication US9403872B2 (priority 1999, dated 2016).

Tested on: human fibrosarcoma HT1080 cells
Type: cell-based

Row | Compound | protection of HT1080 cells against WT-PA plus FP59
1 | CNC(=O)[C@H](Cc1c[nH]c2ccccc12)NC(=O)[C@@H](CC(=O)NO)CC(C)C [GM6001] | did not protect
2 | CNC(=O)[C@@H](NC(=O)[C@H](CC(C)C)[C@H](O)C(=O)NO)C(C)(C)C [BB-2516, Marimastat] | did not protect
